According to patent publication US4145444A, “Anti-inflammatory agent of benzoyl derivative” (priority 1977, dated 1979):
Like-named read-outs stand apart in the source and are kept apart here.

Assays:
[1] = system: platelet; assay: Blood platelet aggregation inhibiting effect (collagen-induced); format: cell-based, rabbits; conditions: Oryctolagus cuniculus, Platelet, read-out: Blood platelet agg. inh.: percentage inhibition of platelet aggregation
Text: Male rabbits (Japan original white strain 3.3 to 3.6 kg) were anesthetized with Thiopental sodium and blood was sampled from the carotid artery.

[2] = system: thrombus; assay: Inhibiting effect on thrombosis (by-pass between left juglar vein and right carotid artery, silk thread); format: in vivo, SD type male rates; conditions: Rattus norvegicus, read-out: Thrombosis inh.: thrombosis inhibition rate
Description: The inhibiting effects of the samples of the invention on thrombosis were tested by the following test method.
A 0.5 ml of 50 μ/ml of the heparin physiological saline was added through the polyethylene tube before the first blood circulation. After the blood circulation for 15 minutes, the circulation was stopped in the middle of the tubing at artery side with a pinch cock.
Then, 0.2 ml of the heparin physiological saline was added to remove the blood coagulates on the tubing wall and another new polyethylene tubing filled with the heparin solution and containing a piece of new silk thread was attached between the venous and artery tubing ends.
The blood circulation was reestablished by opening the pinch cock. After 15 minutes, the wet weight of thrombus on the silk thread was similarly measured.
In the same manner, the third circulation was performed and wet weight of thrombus measured.
The amount of thrombus was given by the equation A. [formula] Each sample was suspended in an aqueous solution of sodium carboxymethyl cellulose and the oral dose of the suspension (100 mg/kg) was performed at 5 hours before the first blood circulation.
The amount of thrombus after the oral dose of the sample was calculated in the same manner as that of control circulations.
The thrombosis inhibition rate was given by the equation B. [formula]

[3] = system: hind paws of male rats; assay: Anti-inflammatory effect: acute carragheenin edema method; format: in vivo; conditions: Rattus norvegicus, read-out: Anti-inf.: edema inhibition rate
Description: The edema was induced by subcutaneous injection of 1% carragheenin suspension in saline to the hind paws of male rats weighting 150 to 180 g. Each sample was orally given at the dosage of 100 mg/kg just before the inoculation of carragheenin.

[4] = system: male mice; assay: Analgesic effect: painful stretchings following intraperitoneal 0.7% acetic acid; conditions: Mus musculus, po, read-out: Analgesic: percentage diminition of times of painful stretching
Description: Each sample was orally administered in the dosage of 100 mg/kg before injection of acetic acid.

[5] = 10^-4 mole, collagen inducer, rabbit PRP
[6] = 100 mg/kg oral, 5 hours before first blood circulation, rats
[7] = 100 mg/kg oral, carragheenin edema, male rats (Table 2)

| SMILES | inhibition at 100 µM [1, 5] | inhibition in vivo at 100 mg/kg [2, 6] | inhibition in vivo at 100 mg/kg [3, 7] | inhibition in vivo at 100 mg/kg [4] | inhibition in vivo at 100 mg/kg ([3]; po) | inhibition at 100 µM [1] | inhibition in vivo at 100 mg/kg ([2]; po, 5 h) |
| --- | --- | --- | --- | --- | --- | --- | --- |
| CCCCOc1ccc(C(=O)Cc2ccc(Cl)cc2)cc1 [compound 61] | 15.8% | 8.5% | 16.7% | 15.1% |  |  |  |
| Cc1ccc(C(=O)c2ccccc2)cc1C [compound 72] | 28.7% | 30.2% | 29.9% | 23.4% |  |  |  |
| CCc1ccc(C(=O)c2ccc(OC)cc2)cc1 [compound 107] | 20.3% | 19.6% |  | 13.2% | 20.3% |  |  |
| CCCCOc1ccc(C(=O)c2ccc(CCCC)cc2)cc1 [compound 95] | 30% | 32.3% | 17.1% | 14.5% |  |  |  |
| CC(C)c1ccc(C(=O)c2ccccc2)cc1 [compound 21] | 8.6% | 5.4% | 37.3% | 16.1% |  |  |  |
| Cc1ccc(C(=O)c2ccccc2F)c(C)c1 [compound 10] | 18.5% | 29.7% | 47.5% | 20.3% |  |  |  |
| COc1ccc(C(=O)C(=O)c2ccccc2)cc1 |  |  |  | 10.2% | 43.9% | 20.1% | 18.3% |
| CCCCc1ccc(CCCC)c(C(=O)c2ccccc2)c1 [compound 77] | 25.1% | 17.5% | 13.2% | 10.8% |  |  |  |
| CCCc1ccc(C(=O)c2ccc(CC)cc2)cc1 [compound 112] | 11.8% | 15.5% | 14.1% | 6.7% |  |  |  |
| CCCCCCOc1ccc(C(=O)Cc2ccc(Cl)cc2)cc1 [compound 62] | 12.3% | 7.8% | 12.5% | 10.2% |  |  |  |
| Cc1cc(C)c(C(=O)c2ccc(O)cc2)c(C)c1 [compound 108] | 28.4% | 34.7% | 10.5% | 3.1% |  |  |  |
| CCCc1ccc(C(=O)c2ccc(Cl)cc2)cc1 [compound 63] | 15.6% | 6.2% | 11.8% | 8.2% |  |  |  |
| CCCCCCc1ccc(C(=O)c2ccccc2)cc1 [compound 24] | 10.5% | 24.3% | 37.6% | 47.7% |  |  |  |
| Cc1ccc(C(=O)c2ccccc2)c(C)c1C [compound 31] | 18.2% | 23.5% | 35.4% | 9.5% |  |  |  |
| O=C(c1ccccc1)c1ccc(O)cc1 [compound 109] | 13.7% | 20.3% | 12.7% | 2.6% |  |  |  |
| CCCCc1ccc(C(=O)c2ccccc2)cc1 [compound 19] | 18.6% | 7.9% | 63.4% | 30.1% |  |  |  |
| CCc1ccc(C(=O)c2ccc(CC)cc2)cc1 [compound 106] | 20.3% | 20.2% | 26.4% | 7.3% |  |  |  |
| CCCCCCCCCCCc1ccc(C(=O)c2ccccc2)cc1 [compound 71] | 19.5% | 11.4% | 20% | 9.2% |  |  |  |
